Laboratory results published in PubChem BioAssay (NCI).
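A five-concentration, 48-hour dose response in 96-well plates underlies each endpoint, interpolated linearly between surrounding concentrations. Here, GI50 denotes the concentration required for 50% inhibition of growth. TGI marks complete inhibition of growth.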

Key:
Test in all cases: DTP human tumour cell line panel, 48 h
[1] = test system: LOX IMVI melanoma
[2] = test system: SK-MEL-5 melanoma
[3] = test system: SF-268 CNS
[4] = test system: NCI-H23 lung
[5] = test system: SK-MEL-2 melanoma
[6] = test system: SF-539 CNS
[7] = test system: MCF7 breast
[8] = test system: HOP-62 NSCLC
[9] = test system: A549 NSCLC
[10] = test system: EKVX NSCLC
[11] = test system: KM12 colon
[12] = test system: SK-OV-3 ovarian
[13] = test system: A498 renal
[14] = test system: MDA-MB-435
[15] = test system: U251 CNS
[16] = test system: SK-MEL-28 melanoma
[17] = test system: NCI/ADR-RES ovarian
[18] = test system: SF-295 CNS
[19] = test system: NCI-H460 lung
[20] = test system: PC-3 prostate
[21] = test system: OVCAR-8 ovarian
[22] = test system: OVCAR-3 ovarian
[23] = test system: COLO 205 colon
[24] = test system: HCC-2998 colon
[25] = test system: SN12C renal
[26] = test system: RXF 393 renal
[27] = test system: M14 melanoma
[28] = test system: CAKI-1 renal
[29] = test system: OVCAR-5 ovarian
[30] = test system: HCT-116 colon
[31] = test system: HT29 colon
[32] = test system: CCRF-CEM leukemia
[33] = test system: MDA-N
[34] = test system: UACC-257 melanoma
[35] = test system: K-562 leukemia
[36] = test system: 786-0 renal
[37] = test system: SW-620 colon
[38] = test system: MOLT-4 leukemia
[39] = test system: UO-31 renal
[40] = test system: HCT-15 colon
[41] = test system: TK-10 renal
[42] = test system: NCI-H226 lung
[43] = test system: BT-549 breast
[44] = test system: SNB-75 CNS
[45] = test system: MALME-3M melanoma
[46] = test system: IGROV1 ovarian
[47] = test system: DU-145 prostate
[48] = test system: OVCAR-4 ovarian
[49] = test system: ACHN renal
[50] = test system: HL-60(TB) leukemia
[51] = test system: MDA-MB-231 breast
[52] = test system: SNB-19 CNS
[53] = test system: HS 578T breast
[54] = test system: UACC-62 melanoma
[55] = test system: HOP-92 NSCLC
[56] = test system: RPMI-8226 leukemia
[57] = test system: SR leukemia
[58] = test system: NCI-H522 lung
[59] = test system: T-47D breast

## C=Cc1nc2nnc(CCCCCCCCc3nnc4nc(C=C)[nH]n34)n2[nH]1
[1]
  TGI: > 100000 nM
[2]
  TGI: > 100000 nM
[3]
  TGI: > 100000 nM
[4]
  TGI: > 100000 nM
[5]
  TGI: > 100000 nM
[6]
  TGI: > 100000 nM
[7]
  TGI: > 100000 nM
[8]
  TGI: > 100000 nM
[9]
  TGI: > 100000 nM
[10]
  TGI: > 100000 nM
[11]
  TGI: > 100000 nM
[12]
  TGI: > 100000 nM
[13]
  TGI: > 100000 nM
[14]
  TGI: > 100000 nM
[15]
  TGI: > 100000 nM
[16]
  TGI: > 100000 nM
[17]
  TGI: > 100000 nM
[18]
  TGI: > 100000 nM
[19]
  TGI: > 100000 nM
[20]
  TGI: > 100000 nM
[21]
  TGI: > 100000 nM
[22]
  TGI: > 100000 nM
[23]
  TGI: > 100000 nM
[24]
  TGI: > 100000 nM
[25]
  TGI: > 100000 nM
[26]
  TGI: > 100000 nM
[27]
  TGI: > 100000 nM
[28]
  TGI: > 100000 nM
[29]
  TGI: > 100000 nM
[30]
  TGI: > 100000 nM
[31]
  TGI: > 100000 nM
[32]
  TGI: > 100000 nM
[33]
  TGI: > 100000 nM
[34]
  TGI: > 100000 nM
[35]
  TGI: > 100000 nM
[36]
  TGI: > 100000 nM
[37]
  TGI: > 100000 nM
[38]
  TGI: > 100000 nM
[39]
  TGI: > 100000 nM
[40]
  TGI: > 100000 nM
[41]
  TGI: > 100000 nM
[42]
  TGI: > 100000 nM
[43]
  TGI: > 100000 nM
[44]
  TGI: > 100000 nM
[45]
  TGI: > 100000 nM
[46]
  TGI: > 100000 nM
[47]
  TGI: > 100000 nM
[48]
  TGI: > 100000 nM
[49]
  TGI: > 100000 nM
[50]
  TGI: > 100000 nM
[51]
  TGI: > 100000 nM
[52]
  TGI: > 100000 nM

## c1ccc2cc(C[n+]3ccn(CCCCCCCCCCCCn4cc[n+](Cc5ccc6ccccc6c5)c4)c3)ccc2c1
[1]
  GI50: 483 nM
  TGI: 941 nM
[2]
  GI50: 502 nM
  TGI: 1040 nM
[3]
  GI50: 746 nM
  TGI: 3010 nM
[4]
  GI50: 722 nM
  TGI: 2400 nM
[5]
  GI50: 573 nM
  TGI: 1270 nM
[6]
  GI50: 807 nM
  TGI: 2910 nM
[7]
  GI50: 512 nM
  TGI: 1170 nM
[8]
  GI50: 815 nM
  TGI: 2650 nM
[53]
  GI50: 693 nM
  TGI: 2480 nM
[9]
  GI50: 744 nM
  TGI: 3570 nM
[10]
  GI50: 894 nM
  TGI: 4200 nM
[54]
  GI50: 725 nM
  TGI: 2430 nM
[11]
  GI50: 553 nM
  TGI: 1410 nM
[55]
  GI50: 500 nM
  TGI: 1400 nM
[12]
  GI50: 661 nM
  TGI: 1800 nM
[13]
  GI50: 515 nM
  TGI: 1620 nM
[14]
  GI50: 682 nM
  TGI: 2530 nM
[15]
  GI50: 521 nM
  TGI: 2530 nM
[16]
  GI50: 779 nM
  TGI: 2860 nM
[17]
  GI50: 8090 nM
  TGI: 25000 nM
[18]
  GI50: 654 nM
  TGI: 2130 nM
[19]
  GI50: 814 nM
  TGI: 2960 nM
[20]
  GI50: 794 nM
  TGI: 2810 nM
[21]
  GI50: 783 nM
  TGI: 2890 nM
[22]
  GI50: 763 nM
  TGI: 2400 nM
[23]
  GI50: 441 nM
  TGI: 833 nM
[24]
  GI50: 1090 nM
  TGI: 4740 nM
[25]
  GI50: 652 nM
  TGI: 2090 nM
[26]
  GI50: 546 nM
  TGI: 1670 nM
[27]
  GI50: 835 nM
  TGI: 3500 nM
[28]
  GI50: 3550 nM
  TGI: 25000 nM
[56]
  GI50: 898 nM
  TGI: 4150 nM
[29]
  GI50: 863 nM
  TGI: 3680 nM
[30]
  GI50: 848 nM
  TGI: 3210 nM
[31]
  GI50: 693 nM
  TGI: 1870 nM
[32]
  GI50: 732 nM
  TGI: 2400 nM
[34]
  GI50: 589 nM
  TGI: 1530 nM
[35]
  GI50: 429 nM
  TGI: 1190 nM
[36]
  GI50: 1730 nM
  TGI: 6930 nM
[37]
  GI50: 815 nM
  TGI: 3300 nM
[38]
  GI50: 508 nM
  TGI: 1020 nM
[39]
  GI50: 2660 nM
  TGI: 8740 nM
[40]
  GI50: 1480 nM
  TGI: 9150 nM
[41]
  GI50: 992 nM
  TGI: 4450 nM
[42]
  GI50: 984 nM
  TGI: 5520 nM
[43]
  GI50: 467 nM
  TGI: 1170 nM
[44]
  GI50: 381 nM
  TGI: 1340 nM
[45]
  GI50: 469 nM
  TGI: 1250 nM
[46]
  GI50: 521 nM
  TGI: 1160 nM
[47]
  GI50: 1030 nM
  TGI: 3800 nM
[48]
  GI50: 694 nM
  TGI: 2530 nM
[57]
  GI50: 679 nM
  TGI: 1670 nM
[58]
  GI50: 470 nM
  TGI: 1250 nM
[49]
  GI50: 1330 nM
  TGI: 7710 nM
[59]
  GI50: 554 nM
  TGI: 1780 nM
[50]
  GI50: 545 nM
  TGI: 1080 nM
[51]
  GI50: 866 nM
  TGI: 2880 nM
[52]
  GI50: 773 nM
  TGI: 3490 nM

## CC1(C)C(N(O)C(=O)Nc2ccc(Cl)cc2)N(c2ccc(Cl)cc2)C(=O)N1CC(=O)N/N=C/C=C/c1ccc([N+](=O)[O-])o1 (stereo unspecified)
[1]
  GI50: 1560 nM
  TGI: 3040 nM
[2]
  GI50: 1320 nM
  TGI: 2760 nM
[3]
  GI50: 3800 nM
  TGI: > 59000 nM
[4]
  GI50: 2130 nM
  TGI: 5560 nM
[5]
  GI50: 946 nM
  TGI: 4420 nM
[6]
  GI50: 1810 nM
  TGI: 3810 nM
[7]
  GI50: 1010 nM
  TGI: > 26700 nM
[8]
  GI50: 2760 nM
  TGI: 6200 nM
[53]
  GI50: 3000 nM
  TGI: > 84400 nM
[9]
  GI50: 3110 nM
  TGI: > 28500 nM
[10]
  GI50: 3170 nM
  TGI: > 83400 nM
[54]
  GI50: 1350 nM
  TGI: 3910 nM
[11]
  GI50: 1710 nM
  TGI: 3760 nM
[55]
  GI50: 522 nM
  TGI: 2310 nM
[12]
  GI50: 4480 nM
  TGI: > 100000 nM
[13]
  GI50: 1730 nM
  TGI: 4120 nM
[14]
  GI50: 2610 nM
  TGI: 10900 nM
[15]
  GI50: 1570 nM
  TGI: > 20700 nM
[16]
  GI50: 1610 nM
  TGI: 3160 nM
[17]
  GI50: > 100000 nM
  TGI: > 100000 nM
[18]
  GI50: 2550 nM
  TGI: > 100000 nM
[19]
  GI50: 2270 nM
  TGI: 6390 nM
[20]
  GI50: 679 nM
[21]
  GI50: 1860 nM
[22]
  GI50: 1490 nM
  TGI: 3960 nM
[23]
  GI50: 1330 nM
  TGI: 2850 nM
[24]
  GI50: 1700 nM
  TGI: 3430 nM
[25]
  GI50: 1730 nM
  TGI: 9730 nM
[26]
  GI50: 337 nM
  TGI: 1640 nM
[27]
  GI50: 1880 nM
  TGI: 7080 nM
[28]
  GI50: > 23200 nM
  TGI: > 100000 nM
[56]
  GI50: 327 nM
  TGI: 1630 nM
[29]
  GI50: 3810 nM
  TGI: 14000 nM
[30]
  GI50: 731 nM
  TGI: 2520 nM
[31]
  GI50: 1920 nM
  TGI: > 22600 nM
[32]
  GI50: 604 nM
  TGI: 2200 nM
[34]
  GI50: 1580 nM
  TGI: 3520 nM
[35]
  GI50: 1570 nM
  TGI: 6030 nM
[36]
  GI50: 2750 nM
  TGI: 10300 nM
[37]
  GI50: 1310 nM
  TGI: 3520 nM
[38]
  GI50: 804 nM
  TGI: 4470 nM
[39]
  GI50: 2640 nM
  TGI: > 20800 nM
[40]
  GI50: 2490 nM
  TGI: > 100000 nM
[41]
  GI50: 4060 nM
  TGI: > 100000 nM
[42]
  GI50: 1990 nM
  TGI: 4880 nM
[43]
  GI50: 1600 nM
  TGI: 5190 nM
[44]
  GI50: 1880 nM
  TGI: 7110 nM
[45]
  GI50: 1290 nM
  TGI: 3080 nM
[46]
  GI50: 2460 nM
[47]
  GI50: 1850 nM
  TGI: 4070 nM
[48]
  GI50: 3870 nM
  TGI: > 100000 nM
[57]
  GI50: 273 nM
  TGI: 1950 nM
[58]
  GI50: 2230 nM
  TGI: > 21300 nM
[49]
  GI50: 3160 nM
  TGI: > 100000 nM
[59]
  GI50: 3470 nM
  TGI: > 70100 nM
[50]
  GI50: 1090 nM
  TGI: 4000 nM
[51]
  GI50: 2040 nM
  TGI: 7570 nM
[52]
  GI50: 2270 nM
  TGI: 6730 nM
